Data published in ChEMBL document CHEMBL1649242, “Molecular epidemiology of CTX-M-producing Escherichia coli isolates at a tertiary medical center in western Pennsylvania” (Antimicrob Agents Chemother, 2009).
The source made the active and inactive calls. The rule behind the calls is not given here.

Tests used:
Type in all cases: functional, organism-based
Escherichia coli [1] = assay: Antimicrobial activity against TEM-10 ESBL producing Escherichia coli clinical isolate by CLSI disk diffusion assay
Escherichia coli [2] = assay: Antimicrobial activity against CTX-M ESBL producing Escherichia coli clinical isolate by CLSI disk diffusion assay
Escherichia coli [3] = assay: Antimicrobial activity against CTX-M-15 ESBL producing Escherichia coli clinical isolate by CLSI disk diffusion assay
Escherichia coli [4] = assay: Antimicrobial activity against SHV-5 ESBL producing Escherichia coli clinical isolate by CLSI disk diffusion assay
Escherichia coli [5] = assay: Antimicrobial activity against SHV-7 ESBL producing Escherichia coli clinical isolate by CLSI disk diffusion assay

SMILES	Activity (Escherichia coli [1])	Activity (Escherichia coli [2])	Activity (Escherichia coli [3])	Activity (Escherichia coli [4])	Activity (Escherichia coli [5])
CO/N=C(\C(=O)N[C@@H]1C(=O)N2C(C(=O)O)=C(COC(C)=O)CS[C@H]12)c1csc(N)n1	Active	–	–	–	–
CC(C)(O/N=C(\C(=O)N[C@@H]1C(=O)N2C(C(=O)[O-])=C(C[n+]3ccccc3)CS[C@H]12)c1csc(N)n1)C(=O)O	inactive	inactive	inactive	inactive	inactive
